# Values joined by “and” are separate entries in the source; they are usually repeats but may differ in a detail not shown here. Identical values can stand only once.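 Values below derive from 48-hour exposures of cells grown in 96-well plates, with endpoints linearly interpolated between the two concentrations bracketing the appropriate inhibition level. GI50 = concentration required for 50% inhibition of growth. TGI marks complete inhibition of growth.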
# How the values were obtained:
# Experiment in all cases: NCI anticancer screen, dose series, 48 h
# SW-620 colon = tested on: SW-620 colon
# NCI-H23 lung = tested on: NCI-H23 lung
# UACC-257 melanoma = tested on: UACC-257 melanoma
# EKVX NSCLC = tested on: EKVX NSCLC
# SK-MEL-5 melanoma = tested on: SK-MEL-5 melanoma
# OVCAR-8 ovarian = tested on: OVCAR-8 ovarian
# NCI-H522 lung = tested on: NCI-H522 lung
# RPMI-8226 leukemia = tested on: RPMI-8226 leukemia
# SF-295 CNS = tested on: SF-295 CNS
# NCI-H226 lung = tested on: NCI-H226 lung
structure (smiles),measurement,setting,value
C/C=C(\C)c1cc(=O)c2c(C)cc3c(c2o1)C(=O)c1c(O)c(C2CC(C)(N(C)C)C(O)C(C)O2)cc(C2CC(N(C)C)C(O)C(C)O2)c1C3=O (stereo not given),TGI,SW-620 colon,1.96 µM and 16.7 µM
same,TGI,NCI-H23 lung,1.03 µM and 9.29 µM
same,GI50,UACC-257 melanoma,0.505 µM and 2.59 µM
same,TGI,UACC-257 melanoma,1.9 µM and 8.55 µM
same,TGI,EKVX NSCLC,1.59 µM
Cn1cc(C2=C(c3c4n(c5ccccc35)CCCC4)C(=O)NC2=O)c2ccccc21,GI50,SK-MEL-5 melanoma,7.94 µM
same,TGI,SK-MEL-5 melanoma,> 25 µM
same,GI50,OVCAR-8 ovarian,> 18.4 µM
same,TGI,OVCAR-8 ovarian,> 25 µM
same,GI50,NCI-H522 lung,4.29 µM
same,TGI,NCI-H522 lung,> 16.3 µM
same,GI50,RPMI-8226 leukemia,> 15.6 µM
same,TGI,RPMI-8226 leukemia,> 25 µM
same,GI50,SF-295 CNS,7.21 µM
same,TGI,SF-295 CNS,> 25 µM
same,GI50,SW-620 colon,8.74 µM
same,TGI,SW-620 colon,> 25 µM
same,GI50,NCI-H23 lung,> 18.2 µM
same,TGI,NCI-H23 lung,> 25 µM
same,GI50,UACC-257 melanoma,> 21.7 µM
same,TGI,UACC-257 melanoma,> 25 µM
same,GI50,NCI-H226 lung,> 22 µM
same,TGI,NCI-H226 lung,> 25 µM
NC(N)=NS(=O)(=O)c1ccc(Nc2c3ccccc3nc3c(C(=O)N4CCN(CCO)CC4)cccc23)cc1,TGI,SK-MEL-5 melanoma,> 100 µM
same,TGI,OVCAR-8 ovarian,> 100 µM
same,TGI,NCI-H522 lung,> 100 µM
same,TGI,SF-295 CNS,> 100 µM
same,TGI,SW-620 colon,> 100 µM
same,TGI,NCI-H23 lung,> 100 µM
same,TGI,UACC-257 melanoma,> 100 µM
same,TGI,EKVX NSCLC,> 100 µM
same,TGI,NCI-H226 lung,> 100 µM
CCCCN(CCCC)c1ccc(C(=N)c2ccc(N(C)C)cc2)cc1,GI50,SK-MEL-5 melanoma,0.505 µM
same,TGI,SK-MEL-5 melanoma,1.7 µM
same,GI50,OVCAR-8 ovarian,0.591 µM
same,TGI,OVCAR-8 ovarian,1.78 µM
same,GI50,RPMI-8226 leukemia,0.224 µM
same,TGI,RPMI-8226 leukemia,0.737 µM
same,GI50,SF-295 CNS,0.349 µM
same,TGI,SF-295 CNS,1.34 µM
same,GI50,SW-620 colon,0.438 µM
same,TGI,SW-620 colon,1.78 µM
same,GI50,NCI-H23 lung,0.278 µM
same,TGI,NCI-H23 lung,0.981 µM
same,GI50,UACC-257 melanoma,0.562 µM
same,TGI,UACC-257 melanoma,1.35 µM
same,GI50,EKVX NSCLC,0.334 µM
same,TGI,EKVX NSCLC,1.45 µM
same,GI50,NCI-H226 lung,1.2 µM
same,TGI,NCI-H226 lung,2.63 µM
O=C(O)C1CCc2nnc(-c3ccccc3)n21 (stereo not given),TGI,SK-MEL-5 melanoma,> 100 µM
same,TGI,OVCAR-8 ovarian,> 100 µM
same,TGI,NCI-H522 lung,> 100 µM
same,TGI,RPMI-8226 leukemia,> 100 µM
same,TGI,SW-620 colon,> 100 µM
same,TGI,UACC-257 melanoma,> 100 µM
same,TGI,EKVX NSCLC,> 100 µM
same,TGI,NCI-H226 lung,> 100 µM
COc1cccc(C(=O)Nc2ccc(CN3CCc4nc5cc(OC)c(OC)cc5cc43)cc2)c1,GI50,SK-MEL-5 melanoma,2.97 µM
same,TGI,SK-MEL-5 melanoma,10.9 µM
same,GI50,OVCAR-8 ovarian,3.88 µM
same,TGI,OVCAR-8 ovarian,> 100 µM
same,GI50,NCI-H522 lung,3.94 µM
same,TGI,NCI-H522 lung,18.3 µM
same,GI50,RPMI-8226 leukemia,3.89 µM
same,TGI,RPMI-8226 leukemia,24.3 µM
same,GI50,SF-295 CNS,5.72 µM
same,TGI,SF-295 CNS,28.1 µM
same,GI50,SW-620 colon,4.16 µM
same,TGI,SW-620 colon,19.4 µM
same,GI50,NCI-H23 lung,4.5 µM
same,TGI,NCI-H23 lung,25.4 µM
same,GI50,UACC-257 melanoma,5.47 µM
same,TGI,UACC-257 melanoma,92.6 µM
same,GI50,NCI-H226 lung,5.69 µM
same,TGI,NCI-H226 lung,> 100 µM
COc1ccc(C2=Nc3ccccc3SC(C)C2)cc1 (stereo not given),TGI,OVCAR-8 ovarian,> 100 µM
same,TGI,NCI-H522 lung,> 100 µM
same,TGI,RPMI-8226 leukemia,60.2 µM
same,TGI,SF-295 CNS,> 100 µM
same,TGI,SW-620 colon,> 100 µM
same,TGI,NCI-H23 lung,> 100 µM
same,TGI,UACC-257 melanoma,> 100 µM
same,TGI,EKVX NSCLC,> 100 µM
same,TGI,NCI-H226 lung,> 100 µM
CN(C)c1ccc2c(c1)CN1C(=O)c3ccccc3C1=N2,GI50,SK-MEL-5 melanoma,> 100 µM
same,TGI,SK-MEL-5 melanoma,> 100 µM
same,GI50,OVCAR-8 ovarian,> 100 µM
same,TGI,OVCAR-8 ovarian,> 100 µM
same,GI50,NCI-H522 lung,36.6 µM
same,TGI,NCI-H522 lung,> 100 µM
same,GI50,RPMI-8226 leukemia,> 100 µM
same,TGI,RPMI-8226 leukemia,> 100 µM
same,GI50,SF-295 CNS,> 100 µM
same,TGI,SF-295 CNS,> 100 µM
same,GI50,SW-620 colon,> 100 µM
same,TGI,SW-620 colon,> 100 µM
same,GI50,NCI-H23 lung,> 100 µM
same,TGI,NCI-H23 lung,> 100 µM
same,GI50,UACC-257 melanoma,> 100 µM
same,TGI,UACC-257 melanoma,> 100 µM
same,GI50,NCI-H226 lung,> 100 µM
same,TGI,NCI-H226 lung,> 100 µM
O=[N+]([O-])c1cc([N+](=O)[O-])c(Cl)c(Cl)c1Cl,GI50,SK-MEL-5 melanoma,1.75 µM
same,TGI,SK-MEL-5 melanoma,3.35 µM
same,GI50,OVCAR-8 ovarian,1.94 µM
same,TGI,OVCAR-8 ovarian,4.57 µM
same,GI50,NCI-H522 lung,0.23 µM
same,TGI,NCI-H522 lung,0.605 µM
same,GI50,RPMI-8226 leukemia,1.54 µM
same,TGI,RPMI-8226 leukemia,5.01 µM
same,GI50,SF-295 CNS,8.15 µM
same,TGI,SF-295 CNS,23.1 µM
same,GI50,SW-620 colon,0.535 µM
same,TGI,SW-620 colon,1.94 µM
same,GI50,NCI-H23 lung,2.69 µM
same,TGI,NCI-H23 lung,8.04 µM
same,GI50,UACC-257 melanoma,1.43 µM
same,TGI,UACC-257 melanoma,2.83 µM
same,GI50,EKVX NSCLC,2.74 µM
same,TGI,EKVX NSCLC,10.5 µM
Cc1onc(-c2c(F)cccc2Cl)c1-c1ncc(-c2ccc(Cl)cc2)o1,GI50,SK-MEL-5 melanoma,2.55 µM
same,TGI,SK-MEL-5 melanoma,8.33 µM
same,GI50,OVCAR-8 ovarian,4.69 µM
same,TGI,OVCAR-8 ovarian,> 100 µM
same,GI50,NCI-H522 lung,3.79 µM
same,TGI,NCI-H522 lung,> 100 µM
same,GI50,RPMI-8226 leukemia,2.77 µM
same,TGI,RPMI-8226 leukemia,44.9 µM
same,GI50,SF-295 CNS,8.66 µM
same,TGI,SF-295 CNS,> 100 µM
same,GI50,SW-620 colon,4.35 µM
same,TGI,SW-620 colon,> 100 µM
same,GI50,NCI-H23 lung,5.04 µM
same,TGI,NCI-H23 lung,> 100 µM
same,GI50,UACC-257 melanoma,3.25 µM
same,TGI,UACC-257 melanoma,> 100 µM
same,GI50,NCI-H226 lung,5.93 µM
same,TGI,NCI-H226 lung,> 100 µM
C=CCC1C(=O)C(C(=O)OC)N2CCc3c([nH]c4ccccc34)C12 (stereo not given),TGI,SK-MEL-5 melanoma,> 100 µM
same,TGI,OVCAR-8 ovarian,> 100 µM
same,TGI,NCI-H522 lung,> 100 µM
same,TGI,RPMI-8226 leukemia,> 100 µM
same,TGI,SF-295 CNS,> 100 µM
same,TGI,SW-620 colon,> 100 µM
same,TGI,NCI-H23 lung,> 100 µM
same,TGI,EKVX NSCLC,> 100 µM
COc1cc(=O)oc(/C=C/C=O)c1C,TGI,SK-MEL-5 melanoma,38.4 µM
same,TGI,OVCAR-8 ovarian,81.1 µM
same,TGI,NCI-H522 lung,35.3 µM
same,TGI,SF-295 CNS,30.3 µM
same,TGI,SW-620 colon,37.6 µM
same,TGI,NCI-H23 lung,46.7 µM
same,TGI,UACC-257 melanoma,35.4 µM
same,TGI,EKVX NSCLC,94.6 µM
same,TGI,NCI-H226 lung,90.9 µM
O=C1c2ccccc2C(=O)C2C1C1C(=O)c3ccccc3C(=O)C21 (stereo not given),TGI,SK-MEL-5 melanoma,> 100 µM
same,TGI,OVCAR-8 ovarian,> 100 µM
same,TGI,NCI-H522 lung,> 100 µM
same,TGI,SF-295 CNS,> 100 µM
same,TGI,SW-620 colon,> 100 µM
same,TGI,NCI-H23 lung,> 100 µM
same,TGI,UACC-257 melanoma,> 100 µM
same,TGI,EKVX NSCLC,> 100 µM
[C-]#[O+].[Cl][Sn]([Cl])[Cl].[Cl][Sn]([Cl])[Cl].[Pt].c1ccc([PH+](c2ccccc2)c2ccccc2)cc1.c1ccc([PH+](c2ccccc2)c2ccccc2)cc1,GI50,SK-MEL-5 melanoma,31.5 µM
same,TGI,SK-MEL-5 melanoma,> 100 µM
same,GI50,OVCAR-8 ovarian,22.5 µM
same,TGI,OVCAR-8 ovarian,65.7 µM
same,GI50,NCI-H522 lung,23.3 µM
same,TGI,NCI-H522 lung,56.7 µM
same,GI50,RPMI-8226 leukemia,27.7 µM
same,TGI,RPMI-8226 leukemia,80.3 µM
same,GI50,SF-295 CNS,71.5 µM
same,TGI,SF-295 CNS,> 100 µM
same,GI50,SW-620 colon,35.1 µM
same,TGI,SW-620 colon,> 100 µM
same,GI50,NCI-H23 lung,13.7 µM
same,TGI,NCI-H23 lung,37 µM
same,GI50,UACC-257 melanoma,37.7 µM
same,TGI,UACC-257 melanoma,> 100 µM
same,GI50,EKVX NSCLC,28 µM
same,TGI,EKVX NSCLC,> 100 µM
COc1cc(-c2nn(-c3ccc(NC(=O)Nc4ccc(Cl)c(Cl)c4)cc3)cc2-c2ccncc2)ccc1Cl,GI50,SK-MEL-5 melanoma,2.48 µM
same,TGI,SK-MEL-5 melanoma,8.29 µM
same,GI50,OVCAR-8 ovarian,3.49 µM
same,TGI,OVCAR-8 ovarian,> 100 µM
same,GI50,SF-295 CNS,1.82 µM
same,TGI,SF-295 CNS,4.4 µM
same,GI50,SW-620 colon,4.3 µM
same,TGI,SW-620 colon,19.4 µM
same,GI50,NCI-H23 lung,3.26 µM
same,TGI,NCI-H23 lung,32.3 µM
same,GI50,UACC-257 melanoma,3.17 µM
same,TGI,UACC-257 melanoma,23.5 µM
same,GI50,EKVX NSCLC,2.61 µM
same,TGI,EKVX NSCLC,15.3 µM
same,GI50,NCI-H226 lung,4.19 µM
same,TGI,NCI-H226 lung,69.1 µM
CNC(=S)N/N=C1\CC(c2ccccc2)Oc2ccccc21 (stereo not given),TGI,SK-MEL-5 melanoma,> 100 µM
same,TGI,OVCAR-8 ovarian,> 100 µM
same,TGI,NCI-H522 lung,> 100 µM
same,TGI,SF-295 CNS,> 100 µM
same,TGI,SW-620 colon,> 100 µM
same,TGI,NCI-H23 lung,> 100 µM
same,TGI,EKVX NSCLC,> 100 µM
same,TGI,NCI-H226 lung,> 100 µM
Clc1ccccc1C(n1ncc2ccccc21)n1ncc2ccccc21,TGI,SK-MEL-5 melanoma,57.7 µM
same,TGI,OVCAR-8 ovarian,> 100 µM
same,TGI,NCI-H522 lung,> 100 µM
same,TGI,RPMI-8226 leukemia,63.3 µM
same,TGI,SF-295 CNS,> 100 µM
same,TGI,SW-620 colon,> 100 µM
same,TGI,NCI-H23 lung,> 100 µM
same,TGI,UACC-257 melanoma,> 100 µM
same,TGI,NCI-H226 lung,> 100 µM
